Assay results from patent US10308939B2, “Use of an miRNA to reduce proliferation of a cancer cell” (Board of Supervisors of Louisiana State University and …, priority 2014, dated 2019).

Key:
Format in all cases: cell-based, human
miR-3189-3p = experiment: qRT-PCR of miR-3189-3p expression in drug-treated LN-229 cells; details: for miR-3189-3p relative expression compared to untreated cells: LN-229, 48 h (FIG. 6E)
Procedure: (§1) Quantitative RT-PCR: Total RNA was isolated using the miRVana miRNA extraction kit (Ambion, Austin, Tex., USA). RNA was reverse transcribed using the High Capacity cDNA Reverse Transcription kit for mRNAs or TaqMan assays for microRNAs (Applied Biosystems, Carlsbad, Calif.). Quantitative real-time PCR was performed in duplicate using a Roche LightCycler 480 Real-Time PCR System (Indianapolis, Ind., USA). Each sample was normalized using GAPDH or RNU6B control (ΔCt) and relative quantification of gene expression was calculated using the comparative Ct (2^−ΔΔCt) method, as described in (Eletto et al., (2008) J. Cell. Physiol. 216: 764-770; Pacifici et al., (2013) J. Cell. Physiol. 228: 1070-1075; Rom et al., (2010) FASEB J. 24: 2292-2300 incorporated herein by reference in their entireties). For the clinical samples relative quantification was represented as 1/ΔCt to maintain real differences in Ct values between samples.

Ago2 immunocomplexes = experiment: RNA-binding protein immunoprecipitation (RIP) with Ago2 antibody; details: extracts from FF-treated LN-229 cells
Procedure: RNA-Binding Protein Immunoprecipitation (RIP): RIP assay was performed using Argonaute 2 (Ago2) antibody from Millipore (RIPAb+Ago2 RIP). This kit included negative control mouse IgG antibody and control primers specific for human FOS, which were utilized for the optimization of Ago2-IP in the cellular model. The RIP Ago-IP was performed essentially as previously described (Curtale et al., (2013) Proc. Nat. Acad. Sci. U.S.A. 110: 11499-11504). In brief, 10×10^6 LN-229 cells were used for Ago2-IP and for the IgG isotype control; 2×10^6 cells were used for the extraction of total RNA and for total protein lysates. The cell monolayer was washed twice with cold PBS, and lysed in 500 μl of Lysis Buffer (150 mM KCl, 25 mM Tris-HCl pH 7.4, 5 mM EDTA, 0.5% NP40, 5 mM DTT) supplemented with 10 mM Protease Inhibitor Cocktail, 10 mM PMSF, 10 mM Phosphatase Inhibitor, 10 mM Na3VO4 and 100 U/ml RNase Inhibitor (Applied Biosystems). After 30 min of incubation on ice, lysates were centrifuged for 30 min at 14,000 rpm at 4° C. in a microcentrifuge. 30 μL of Protein A/G Magnetic Beads (Pierce, Thermo Scientific, Waltham, Mass.) were washed three times with Blocking Solution (0.5% BSA dissolved in DPBS+/+) and incubated for 1 h at 4° C. with 5 μg of anti-Ago2 mouse monoclonal IgG1κ or with isotype IgG1κ control antibodies (Millipore). The immunocomplexes were washed three times with Blocking Solution. […]

miR-3189-5p = experiment: qRT-PCR of miR-3189-5p expression in fenofibrate-treated LN-229 and U87MG cells; details: fenofibrate treatment, 48 h
Procedure: as §1

GDF15 [1] = experiment: Western blot of GDF15 protein in fenofibrate-treated LN-229 cells; details: LN-229, fenofibrate treatment
Procedure: (§2) Western Blot Analysis: Cells were collected by gently scraping in the presence of PBS (Gibco, Life Technologies), followed by centrifugation and disruption of the cell pellet in lysis buffer (50 mM HEPES, pH 7.5, 150 mM NaCl, 1.5 mM MgCl2, 1 mM EGTA, pH 8.4, 10% glycerol, 1% Triton X-100, 1 mM PMSF, 1 mM sodium orthovanadate (NA3VO4), Phosphatase and Protease Inhibitor Cocktails (Sigma). Whole-cell lysates (30 to 70 μg) were separated on a 4-15% SDS-PAGE gel (Bio-Rad, Hercules, Calif.). GDF15 and E2F-1 antibodies were purchased from Cell Signaling Technology (Beverly, Mass.). The antibody to detect p63RhoGEF was obtained from GeneTex (Irvine, Calif.). GDF15 antibody was purchased from R&D Systems (Minneapolis, Minn.), and anti-GRB2 was from BD Transduction Laboratories (San Jose, Calif.). SF3B2 and 14-3-3ζ antibodies were obtained from Santa Cruz Biotechnology.

GDF15 mRNA [2] = experiment: qRT-PCR of GDF15 expression in fenofibrate-treated U87MG cells; details: 50 μM, 24 and 48 h time points
Procedure: as §1
To further analyze the effects of fenofibrate on this gene, the human glioblastoma cell lines, LN-229 and U87MG were exposed to 50 μM fenofibrate and monitored the expression of GDF15 at 24 and 48 h time points. […] Following the treatment, total RNA was extracted and subjected to quantitative real-time PCR (qRT-PCR) using GDF15-specific and GAPDH-specific primers. […]

GDF15 [3] = experiment: ELISA of secreted mature GDF15 in LN-229 culture medium; details: LN-229, 48 h following treatment
Procedure: ELISA Assay: Mature GDF15 was detected in the cell culture medium using the GDF15 Quantikine ELISA kit from R&D Systems (Minneapolis, Minn.), according to the manufacturer's instructions. Sample absorbance was measured at 450 nm using a Bio-Rad Benchmark Plus microplate reader.

GDF15 mRNA [4] = experiment: qRT-PCR of GDF15 expression in drug-treated LN-229 cells
Procedure: as §1
To further analyze the effects of fenofibrate on this gene, the human glioblastoma cell lines, LN-229 and U87MG were exposed to 50 μM fenofibrate and monitored the expression of GDF15 at 24 and 48 h time points. […] Following the treatment, total RNA was extracted and subjected to quantitative real-time PCR (qRT-PCR) using GDF15-specific and GAPDH-specific primers. The results in FIG. 6A show a 60- and 35-fold up-regulation of GDF15 gene expression in the two cell lines.

SF3B2 mRNA = experiment: qRT-PCR of SF3B2 mRNA in transfected LN-229 and U87MG cells; details: co-expressed with miR-3189-3p
Procedure: as §1

LN-229 cells = experiment: Rescue from fenofibrate-induced cell death; details: LN-229 cells treated with fenofibrate
E2F-1 = experiment: Western blot of E2F-1 protein in LN-229 cells; details: co-transfected with miR-3189-3p
Procedure: as §2

p63RhoGEF mRNA = experiment: qRT-PCR of p63RhoGEF mRNA in transfected LN-229 and U87MG cells; details: co-expressed with miR-3189-3p
Procedure: as §1

LN-229 and U87MG cells = experiment: Cell proliferation assay (MTS)
Procedure: For transfection experiments, cells were seeded at a density of 4×10^5 cells/60 mm dish or 2.5×10^4 cells/well in 12-well plates, and transfected using Lipofectamine 2000 (Life Technologies, Grand Island, N.Y.) per manufacturer's instructions. SF3B2 and p63RhoGEF siRNAs and controls were purchased from Santa Cruz (Santa Cruz, Calif.), and were used at the final concentration of 10 nM. Human PPARα siRNA was the ON-TARGET plus SMART pool from Thermo Scientific Dharmacon (Lafayette, Colo.), and it was used at the final concentration of 100 nM. The PPARα […] WY146,43 was from Cayman Chemical (St. Louis, Mo.). For the transient transfection experiments, cells were seeded at a density of 4×10^5 cells/60 mm dish or 2.5×10^4 cells/well in 12-well plates, and transfected using Lipofectamine 2000 reagent (Life Technologies) per manufacturer's instructions.
At 72 h after transfection, cells were incubated with medium containing 3-(4,5-dimethylthiazol-2-yl)-5-(3-carboxymethoxyphenyl)-2-(4-sulfophenyl)-2H-tetrazolium (MTS) reagent (Promega) diluted according to manufacturer's instructions. Cells were then incubated at 37° C. for 30-60 min and absorbance was measured at a wavelength of 490 nm using a Bio-Rad Benchmark Plus microplate reader.

p63RhoGEF 3′UTR = experiment: Dual luciferase assay, psiCHECK2/p63RhoGEF 3′UTR in LN-229 cells; details: co-transfected with miR-3189-3p mimic
Source text: (§3) Cloning for microRNA Functional Analysis: The genomic sequence corresponding to the 3′UTR of p63RhoGEF was PCR amplified from LN-229 cells. This PCR product was ligated into the multiple cloning sites downstream of the Renilla luciferase reporter gene in the psiCHECK-2 vector (Promega, Madison, Wis.). This vector also contains a firefly luciferase reporter sequence, which allows for normalization of transfection efficiency. The primers used were: forward, 5′-[…] (SEQ ID NO: 7), containing the XhoI restriction site (underlined) and reverse, 5′-[…] (SEQ ID NO: 8), containing the NotI restriction site (underlined). The genomic sequence corresponding to the 3′UTR of SF3B2 was also cloned into the psiCHECK-2 vector. The primers used were: forward, 5′-[…] (SEQ ID NO: 9), containing the XhoI restriction site (underlined) and reverse, 5′-[…] (SEQ ID NO: 10) containing the NotI restriction site (underlined).
(§4) The oligonucleotides for the mutagenesis of p63RhoGEF sites were as follows: site 1 forward, 5′-[…] (SEQ ID NO: 11), site 2 forward, 5′-[…] (SEQ ID NO: 12), and site 3 forward, 5′-[…] (SEQ ID NO: 13). […]
(§5) After 24 h, cells were harvested and lysates were assayed for luciferase activity with the Dual-Luciferase Reporter Assay System (Promega) using a Synergy 2 microplate reader (BioTek Instruments, Inc., Winooski, Vt.). […]

SF3B2 3′UTR = experiment: Dual luciferase assay, psiCHECK2/SF3B2 3′UTR in LN-229 cells; details: co-transfected with miR-3189-3p mimic
Source text: as §3, §4, §5

[5] = 48 h after treatment/transfection, with fenofibrate

COc1cccc2c1C(=O)c1c(O)c3c(c(O)c1C2=O)C[C@@](O)(C(=O)CO)C[C@@H]3O[C@H]1C[C@H](N)[C@H](O)[C@H](C)O1 [doxorubicin]
miR-3189-3p relative expression compared to untreated cells (miR-3189-3p): only in fenofibrate treated cells

CC(C)OC(=O)C(C)(C)Oc1ccc(C(=O)c2ccc(Cl)cc2)cc1 [fenofibrate, propan-2-yl 2-{4-[(4-chlorophenyl)carbonyl]phenoxy}-2-methylpropanoate]
overexpression of miR-3189-3p linked to Ago2 immunocomplexes compared to untreated cells (Ago2 immunocomplexes): ~35 fold
expression of miR-3189-5p (miR-3189-5p): did not change
GDF15 protein content (GDF15 [1]): large increase
up-regulation of GDF15 gene expression (GDF15 mRNA [2]): 35 fold
secreted GDF15 (GDF15 [3]): significant levels
up-regulation of GDF15 gene expression (GDF15 mRNA [4]; 50 μM, 24 and 48 h time points, LN-229): 60 fold
GDF15 mRNA up-regulation relative to untreated cells (GDF15 mRNA [4]; LN-229, 48 h, comparison with doxorubicin and paclitaxel (FIG. 6E)): more than 60 folds
miR-3189-3p relative expression compared to untreated cells (miR-3189-3p): 4.8 fold

Cc1cccc(Nc2cc(Cl)nc(SCC(=O)O)n2)c1C [WY146,43]
impact on GDF15 levels triggered by fenofibrate (GDF15 mRNA [4]; [5]): no significant impact
impact on miR-3189-3p levels triggered by fenofibrate (miR-3189-3p; [5]): no significant impact

CC(=O)O[C@H]1C(=O)[C@@]2(C)[C@H]([C@H](OC(=O)c3ccccc3)[C@]3(O)C[C@H](OC(=O)[C@H](O)[C@@H](NC(=O)c4ccccc4)c4ccccc4)C(C)=C1C3(C)C)[C@]1(OC(C)=O)CO[C@@H]1C[C@@H]2O [paclitaxel]
miR-3189-3p relative expression compared to untreated cells (miR-3189-3p): only in fenofibrate treated cells

anti-miR-3189-3p: miR-3189-3p mirVana miRNA inhibitor (SEQ ID NO: 22) purchased from Life Technologies (UGCCCCAUCUGUGCCCUGGGUAGGA; listed as RNA, chemistry not given here)
effect on miR-3189-3p downregulation of SF3B2 transcript (SF3B2 mRNA): counteracted
rescue from fenofibrate-induced cell death (LN-229 cells): did not rescue
effect on miR-3189-3p down-regulation of E2F-1 (E2F-1): reversed
effect on miR-3189-3p downregulation of p63RhoGEF transcript (p63RhoGEF mRNA): counteracted
changes in proliferation and cell cycle on co-transfection with miR-3189-3p (LN-229 and U87MG cells; co-transfected with miR-3189-3p): No significant changes
effect on miR-3189-3p inhibition of p63RhoGEF 3′UTR reporter (p63RhoGEF 3′UTR): efficiently reverted
effect on miR-3189-3p inhibition of SF3B2 3′UTR reporter (SF3B2 3′UTR): almost completely alleviated

miR-3189-5p: mature microRNA of 25 nucleotides from the miR-3189 stem-loop (SEQ ID NO: 21) (GUUGCCCCAUCUGUGCCCUGGGUAGGA; listed as RNA, chemistry not fully specified)
changes in cell morphology, cell proliferation and migration (LN-229 and U87MG cells; transfection of LN-229 and U87MG cells): did not elicit changes in cell morphology, nor inhibited cell proliferation and migration
